From US9763961B2, “Compositions that modulate the activity of estrogen receptors and estrogen-related receptors and methods for use” (CITY OF HOPE, priority 2005, dated 2017)

Experiments:
Type in all cases: cell-based
aromatase in HepG2 cells = assay: In-cell aromatase assay in HepG2 cells; conditions: 24 h, FIG. 6C
Procedure: To evaluate the effect of chalcones on aromatase activity, we performed both in vitro assay and in-cell assay with chalcones. […] In addition, MCF-7 aro cells, which are stable aromatase-expressing breast cancer cell line, were incubated with chalcones.
Referring to FIG. 6, the effect of Compound No. 1-9 on aromatase activity was investigated by both in vitro inhibition assay (A) and in-cell aromatase assay (B; MCF-7 aro cells, C; HepG2 cells, D; SK-BR-3 cells). Referring to FIG. 6A, aromatase inhibition study with Compound No. 1-9 was performed on a human placental microsomal aromatase preparation using the assay procedures described in (9). Referring to FIG. 6B, MCF-7 aro cells, which are stable aromatase-expressing cell line generated in our laboratory (10), were incubated with 10 μM of Compound No. 1-9. After 24 h incubation, aromatase activity was measured by [3H] H20 release method. HepG2 cells, as shown in FIG. 6C and SK-BR-3 cells as shown in FIG. 6D were also incubated with Compound No. 1-9 for 24 h, and aromatase activities were measured. Values represent the mean±SD.

ERRα = biological target: T1, ERRα (Homo sapiens, UniProt P11474); assay: Transient transfection assays, relative luciferase activity for ERRα (FIG. 7)
T1 sequence (P11474 1-423): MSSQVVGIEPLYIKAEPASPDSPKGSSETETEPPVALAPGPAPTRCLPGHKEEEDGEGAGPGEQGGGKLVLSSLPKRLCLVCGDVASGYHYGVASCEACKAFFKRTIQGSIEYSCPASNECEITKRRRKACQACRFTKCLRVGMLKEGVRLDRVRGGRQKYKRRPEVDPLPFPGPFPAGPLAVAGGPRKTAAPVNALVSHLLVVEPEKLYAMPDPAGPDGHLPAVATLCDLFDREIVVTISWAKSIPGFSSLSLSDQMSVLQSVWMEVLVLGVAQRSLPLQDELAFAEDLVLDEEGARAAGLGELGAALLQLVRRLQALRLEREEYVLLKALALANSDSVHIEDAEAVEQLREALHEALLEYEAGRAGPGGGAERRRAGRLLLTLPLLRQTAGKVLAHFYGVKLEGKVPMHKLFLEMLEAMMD
Procedure: HeLa cells were cultured in MEM Earle's salts medium supplemented with 5% charcoal/dextran-treated fetal bovine serum. Cells were then divided and cultured in 6-well plates until 80% confluence was achieved. The cells were next transfected with 4 μg Lipofectin. An equal amount of total DNA was used in all transfections by including appropriate amounts of the empty vector, pSG5, in addition to specific amounts of pSG5-ERRα and luciferase reporter plasmids (ERRE (ERRα recognizes an ERE half site)-containing reporter and aromatase promoter I.3-containing reporter). Following an overnight incubation, the medium containing Lipofectin and DNA was removed, and the cells cultured in a growth medium containing 5% charcoal/dextran-treated fetal bovine serum with or without ligands. After a 24-hour incubation, the cells was harvested from the plates by scraping, and the luciferase activities in the cell lysates (with the same amounts of protein) was measured according to the manufacturer's instructions (Promega). All experiments were performed in triplicate.
(§1) Referring to FIG. 2, we have also prepared GAL4-ERRα expression plasmid and luciferase reporter plasmids with GAL4 response element. This is a more sensitive assay method than that using pSG5-ERRα and ERE luciferase reporter plasmids.
The 2-methoxyl group may be important for the antagonistic activity of the chalcone. […]

ERβ = biological target: T2, ERβ (Homo sapiens, UniProt Q92731); assay: Transient transfection luciferase assay with pCI-ERb and ERE-SV40 reporter in HeLa cells, with 100 pM estradiol; conditions: for IC50: HeLa cells, in the presence of 100 pM of estradiol, 24 h; for Antagonistic properties on ERb (in words): transient transfection
T2 construct: expressed in transfected cells; host or cells: HeLa

ERRγ = biological target: T3, ERRγ (Homo sapiens, UniProt P62508); assay: Transient transfection luciferase assay with pSG5-ERRg and SF1-SV40 reporter in HeLa cells; conditions: for IC50: HeLa cells, 24 h, average of at least two experiments; for Antagonistic properties on ERRg (in words): transient transfection
T3 construct: expressed in transfected cells; host or cells: HeLa
T3 sequence (P62508 1-458): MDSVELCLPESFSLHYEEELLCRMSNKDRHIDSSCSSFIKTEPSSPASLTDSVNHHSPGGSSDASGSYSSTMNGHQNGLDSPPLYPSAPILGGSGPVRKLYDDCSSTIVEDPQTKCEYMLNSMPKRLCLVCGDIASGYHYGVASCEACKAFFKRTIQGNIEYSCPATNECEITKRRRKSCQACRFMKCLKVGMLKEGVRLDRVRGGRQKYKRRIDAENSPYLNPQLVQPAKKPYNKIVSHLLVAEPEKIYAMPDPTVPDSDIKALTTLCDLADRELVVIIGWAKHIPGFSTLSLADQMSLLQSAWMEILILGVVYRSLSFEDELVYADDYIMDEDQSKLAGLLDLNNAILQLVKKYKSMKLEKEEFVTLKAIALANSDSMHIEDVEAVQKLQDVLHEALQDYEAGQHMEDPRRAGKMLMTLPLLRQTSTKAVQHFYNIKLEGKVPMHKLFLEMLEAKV

[1] = biological target: T4, GAL4-human ERRα LBD fusion (Homo sapiens, UniProt P11474); assay: Transient transfection luciferase assay, GAL4-human ERRα LBD fusion with Gal4-TK-Luc reporter in HeLa cells; conditions: pM-ERRα LBD, 24 h, mean ± SD
T4 construct: GAL4-human ERRα LBD fusion expression plasmid; expressed in transfected cells; host or cells: HeLa
T4 sequence (P11474 193-421 limits assumed): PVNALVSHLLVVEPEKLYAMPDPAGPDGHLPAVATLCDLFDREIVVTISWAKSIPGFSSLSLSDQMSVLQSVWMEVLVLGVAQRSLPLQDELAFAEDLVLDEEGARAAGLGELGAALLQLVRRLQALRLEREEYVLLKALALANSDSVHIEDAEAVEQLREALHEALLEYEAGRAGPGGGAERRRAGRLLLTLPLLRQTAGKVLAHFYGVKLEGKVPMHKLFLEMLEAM
Procedure: as §1
To evaluate the functional significance of the interaction of chalcones with ERRα, we incubated these compounds with HeLa cells which were transiently transfected with human ERRα expression plasmid and a luciferase reporter plasmid containing SF1 binding site. […] In order to confirm the results above, HeLa cells were transiently transfected with GAL4-human ERRα LBD fusion expression plasmid and a luciferase reporter plasmid containing GAL4 binding site. […] Most of the compounds, however, have similar IC50 value, and have a similar potency.
Referring to FIG. 2, HeLa cells were cotransfected with pM-ERRα LBD (0.5 μg) and luciferase reporter plasmid containing GAL4 binding site and TK promoter (0.25 μg). The transfected cells were incubated with Compound No. 1-9 for 24 h. After cells were washed with 1× PBS, luciferase activity was measured. Values represent the mean±SD.

T2 sequence (Q92731 whole entry, species assumed): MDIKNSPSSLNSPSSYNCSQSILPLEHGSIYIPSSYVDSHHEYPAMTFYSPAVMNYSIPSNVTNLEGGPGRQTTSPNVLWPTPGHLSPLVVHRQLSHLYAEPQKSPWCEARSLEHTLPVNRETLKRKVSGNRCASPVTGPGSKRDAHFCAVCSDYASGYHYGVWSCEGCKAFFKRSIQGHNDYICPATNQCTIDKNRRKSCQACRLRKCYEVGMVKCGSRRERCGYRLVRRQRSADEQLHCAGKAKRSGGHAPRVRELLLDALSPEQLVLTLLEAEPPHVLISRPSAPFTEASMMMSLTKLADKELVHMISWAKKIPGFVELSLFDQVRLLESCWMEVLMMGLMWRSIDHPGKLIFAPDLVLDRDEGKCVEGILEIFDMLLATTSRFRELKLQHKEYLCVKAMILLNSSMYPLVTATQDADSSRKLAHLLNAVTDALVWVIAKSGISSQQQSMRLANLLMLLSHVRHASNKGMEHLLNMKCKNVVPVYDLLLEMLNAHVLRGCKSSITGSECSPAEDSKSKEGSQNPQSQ

| IC50 (ERRα; read-out: IC50 values through transient transfection assays) | IC50 (ERβ) | Antagonistic properties on ERb (in words) (ERβ) | IC50 (ERRγ) | Antagonistic properties on ERRg (in words) (ERRγ) | IC50 [1] | Compound | Effect on aromatase activity, HepG2 cells (aromatase in HepG2 cells) | Effect on constitutive activity of ERRα (relative luciferase activity) (ERRα; compared to DMSO control, FIG. 7) |
| --- | --- | --- | --- | --- | --- | --- | --- | --- |
| 0.7 to 2 µM | 4.6 µM | showed antagonistic properties | 8 µM | showed antagonistic properties | 1.1e+06 ± 700000 pM | COc1cccc(/C=C/C(=O)c2ccc(O)cc2O)c1OC [Compound No. 1-9, 2′,4′-Dihydroxy-2,3-dimethoxychalcone] | inhibited aromatase activity in a dose-dependent manner | can suppress the constitutive activity of ERRα |
| – | 7.4 µM | showed antagonistic properties | 3.7 µM | showed antagonistic properties | 900000 ± 400000 pM | O=C(/C=C/c1ccccc1O)c1ccc(O)cc1O [Compound No. 7-5, 2,2′,4′-Trihydroxychalcone] | – | – |
